As a reminder, the IC50 is the concentration needed to halve the response being measured.

SMILES strings stand for the structures.

The assay deals with T1, Dihydrofolate reductase (Bos taurus, UniProt P00376).
T1 sequence (P00376 whole entry): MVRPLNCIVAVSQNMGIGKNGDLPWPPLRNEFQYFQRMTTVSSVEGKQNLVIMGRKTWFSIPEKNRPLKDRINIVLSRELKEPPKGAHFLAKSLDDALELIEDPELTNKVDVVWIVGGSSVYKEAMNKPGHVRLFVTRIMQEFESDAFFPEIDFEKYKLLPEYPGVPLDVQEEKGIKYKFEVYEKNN
The assay is described as follows: Inhibition of bovine liver DHFR measured for every 1 min of 10 mins.

The compound `Clc1cc2c(cc1Cl)N=C(c1ccc(Br)cc1)C1CCCC(=Cc3ccc(Br)cc3)C1=N2` (configuration not stated) displayed an IC50 of 100 nM.
Compound `COc1ccc(C=C2CCCC3C2=Nc2cc(C)c(C)cc2N=C3c2ccc(OC)cc2)cc1` (configuration not stated) displayed an IC50 of 100 nM.
